Activity calls are given as the source filed them. The rule behind the calls is not given here.
Columns and labels:
NCI/ADR-RES [1] = assay: Cell cycle arrest in human MCF7/ADR cells assessed as accumulation at G0/G1 phase at 0.5 uM after 48 hrs by propidium iodide staining based flow cytometry (reference value: 38.76%); assay type: functional
[2] = Plasma concentration in Sprague-Dawley rat at 10 mg/kg, iv administered as single dose measured at 0.083 hrs post dosing by LC-MS/MS analysis; assay type: ADME, organism-based
NCI/ADR-RES [3] = assay: Cell cycle arrest in human MCF7/ADR cells assessed as accumulation at S-phase at 0.5 uM after 24 hrs by propidium iodide staining based flow cytometry (reference value: 25.87%); assay type: functional
[4] = Plasma concentration in Sprague-Dawley rat at 10 mg/kg, iv administered as single dose measured at 0.25 hrs post dosing by LC-MS/MS analysis; assay type: ADME, organism-based
[5] = Apparent terminal half life in Sprague-Dawley rat at 10 mg/kg, iv administered as single dose by LC-MS/MS analysis; assay type: ADME, organism-based; conditions: in vivo, read-out: betat1/2(app) (converted)
[6] = Cmax in Sprague-Dawley rat at 10 mg/kg, iv administered as single dose by LC-MS/MS analysis; assay type: ADME, organism-based; design: dose 10 mg/kg, route intravenous; conditions: in vivo
MCF7 [7] = assay: Cell cycle arrest in human MCF7 cells assessed as accumulation at G2/M phase at 0.5 uM after 24 hrs by propidium iodide staining based flow cytometry (reference value: 22.57%); assay type: functional
NCI/ADR-RES [8] = assay: Downregulation of Cyclin-D1 protein expression in human MCF7/ADR cells at 0.05 to 0.1 uM after 24 to 48 hrs by Western blot analysis; assay type: functional, cell-based
MCF7 [9] = assay: Cell cycle arrest in human MCF7 cells assessed as accumulation at sub-G1 phase at 0.5 uM after 24 hrs by propidium iodide staining based flow cytometry (reference value: 1.78%); assay type: functional
MCF7 [10] = assay: Cell cycle arrest in human MCF7 cells assessed as accumulation at S-phase at 1 uM after 24 hrs by propidium iodide staining based flow cytometry (reference value: 18.24%); assay type: functional
NCI/ADR-RES [11] = assay: Effect on P-gp protein expression in human MCF7/ADR cells at 0.05 to 0.1 uM after 24 to 48 hrs by Western blot analysis; assay type: functional, cell-based
[12] = Plasma concentration in Sprague-Dawley rat at 10 mg/kg, iv administered as single dose measured at 4 hrs post dosing by LC-MS/MS analysis; assay type: ADME, organism-based
NCI/ADR-RES [13] = assay: Cell cycle arrest in human MCF7/ADR cells assessed as accumulation at G0/G1 phase at 1 uM after 24 hrs by propidium iodide staining based flow cytometry (reference value: 45.98%); assay type: functional
NCI/ADR-RES [14] = assay: Cell cycle arrest in human MCF7/ADR cells assessed as accumulation at G2/M phase at 0.5 uM after 48 hrs by propidium iodide staining based flow cytometry (reference value: 31.94%); assay type: functional
MCF7 [15] = assay: Cell cycle arrest in human MCF7 cells assessed as accumulation at G0/G1 phase at 0.5 uM after 24 hrs by propidium iodide staining based flow cytometry (reference value: 57.83%); assay type: functional

C[C@H]1[C@@H](Oc2ccc(-c3cc(-c4ccccc4)[nH]n3)cc2)O[C@@H]2O[C@@]3(C)CC[C@H]4[C@H](C)CC[C@@H]1[C@@]24OO3
Activity (NCI/ADR-RES [1]): 46.94%
concentration at 0.083 h [2]: 4460 ng/mL
Activity (NCI/ADR-RES [3]): 21.64%
concentration at 0.25 h [4]: 1720 ng/mL
half-life [5]: 3.58 h
Cmax [6]: 4460 ng/mL
Activity (MCF7 [7]): 16.94%
Activity (NCI/ADR-RES [8]): inactive
Activity (MCF7 [9]): 0.44%
Activity (MCF7 [10]): 10.13%
Activity (NCI/ADR-RES [11]): inactive
concentration at 4 h [12]: 147 ng/mL
Activity (NCI/ADR-RES [13]): 61.78%
Activity (NCI/ADR-RES [14]): 30.15%
Activity (MCF7 [15]): 70.95%
